Where two headings read alike, the source gives them in different places.

The target of this test is T1, RORc ligand binding domain (Homo sapiens, UniProt P51449).
T1 construct: host or cells: E. coli
T1 sequence (P51449 269-508 limits assumed): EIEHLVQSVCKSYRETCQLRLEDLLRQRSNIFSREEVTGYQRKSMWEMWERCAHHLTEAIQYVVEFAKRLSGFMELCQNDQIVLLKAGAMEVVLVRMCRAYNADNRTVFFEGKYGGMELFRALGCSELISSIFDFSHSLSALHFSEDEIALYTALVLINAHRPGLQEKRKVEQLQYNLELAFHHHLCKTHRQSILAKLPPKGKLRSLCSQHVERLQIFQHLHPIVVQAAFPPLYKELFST
Kind of test: In Vitro RORc Ligand Binding Assay (25-[3H]hydroxycholesterol radioligand filtration). The conditions noted are these: read-out: RORc IC50.

Setting [1] is: In Vitro RORc Ligand Binding Assay, Table 4.

A word on the IC50: it is the midpoint of a concentration-inhibition curve. On to `C[C@H]1CCC(c2ccccc2)S(=O)(=O)N1Cc1ccc(N2CCC(c3nncn3C)CC2)cc1F` (single isomer, unassigned) [Example 137], for which the IC50 under setting [1] came to 2480 nM.

For the compound `C[C@H]1CCC(c2ccccc2)S(=O)(=O)N1Cc1ccc(NC2CCN(S(C)(=O)=O)CC2)cc1F` (single isomer, unassigned) [Example 166], the IC50 under setting [1] is 25 nM.

For `CC(Oc1ccc(CN2[C@@H](C)CCC(c3ccccc3)S2(=O)=O)cc1)C1CCOCC1` (stereo partly drawn) [Example 437, (3S)-Methyl-6-phenyl-2-{4-[1-(tetrahydro-pyran-4-yl)-ethoxy]-benzyl}-[1,2]thiazinane 1,1-dioxide], the IC50 is 48 nM.

Take `C[C@H]1CCC(c2ccccc2)S(=O)(=O)N1Cc1ccc(N2CCC(c3nncn3C)CC2)cc1F` (single isomer, unassigned) [Example 138]: under setting [1], the IC50 was 1100 nM.

With `CC(=O)N1CCN(c2ccc(CN3[C@H](C)CCC(c4ccccc4)S3(=O)=O)c(F)c2)CC1` (single isomer, unassigned) [Example 19], the IC50 under setting [1] stood at 2800 nM.

As for `C[C@H]1CCC(c2ccccc2)S(=O)(=O)N1Cc1ccc(N2CCN(C3=CC(=O)CCC3)CC2)cc1F` (stereo partly drawn) [Example 188, 3-{4-[3-Fluoro-4-((3S)-3-methyl-1,1-dioxo-6-phenyl-[1,2]thiazinan-2-ylmethyl)-phenyl]-piperazin-1-yl}-cyclohex-2-enone], under setting [1], the IC50 turned out to be 108 nM.

Take `C[C@H]1CCC(c2ccccc2)S(=O)(=O)N1Cc1ccc(N2CCn3c(cnc3C#N)C2)cc1F` (stereo partly shown): the IC50 was 182 nM.

Turning to `CC(=O)N1CCN(c2ccc(CN3[C@@H](C)CCC(c4cccc(C#N)c4)S3(=O)=O)c(F)c2)CC1` (single isomer, unassigned) [Example 202], the IC50 under setting [1] stood at 738 nM.

For the compound `CC(=O)N1CCN(c2ccc(CN3CCCCC(c4ccccc4)S3(=O)=O)c(F)c2)[C@@H](C)C1` (single isomer, unassigned) [Example 335, 1-{4-[4-(1,1-Dioxo-7-phenyl-[1,2]thiazepan-2-ylmethyl)-3-fluoro-phenyl]-3-methyl-piperazin-1-yl}-ethanone], under setting [1], the IC50 was found to be 8 nM.

With `C[C@H]1CCC(c2ccccc2)S(=O)(=O)N1Cc1ccc(N2CCC3(CC2)COC3)cc1F` (single isomer, unassigned) [Example 99], the IC50 under setting [1] is 44 nM.

Consider `CC(=O)N1CCN(c2cnc(CN3[C@@H](C)CCC(c4ccccc4)S3(=O)=O)cn2)CC1` (single isomer, unassigned) [Example 178], for which the IC50 under setting [1] was 1430 nM.

Take `C[C@H]1CCC(c2ccccc2)S(=O)(=O)N1Cc1ccc(C(=O)N2CCn3ccnc3C2)cc1` (stereo partly drawn) [Example 296, (5,6-Dihydro-8H-imidazo[1,2-a]pyrazin-7-yl)-[4-((3S)-methyl-1,1-dioxo-6-phenyl-[1,2]thiazinan-2-ylmethyl)-phenyl]-methanone]: under setting [1], the IC50 was 1290 nM.

Regarding `CC[C@H]1CCC(c2ccccc2)S(=O)(=O)N1Cc1ccc(NC2CCN(S(C)(=O)=O)CC2)cc1F` (single isomer, unassigned) [Example 239], the IC50 under setting [1] worked out at 3 nM.

For `CNC(=O)[C@@H]1CN(c2ccc(CN3[C@@H](C)CCC(c4ccccc4)S3(=O)=O)c(F)c2)CCN1C(C)=O` (stereo partly drawn) [Example 380, (S)-1-Acetyl-4-[3-fluoro-4-((3S)-methyl-1,1-dioxo-6-phenyl-[1,2]thiazinan-2-ylmethyl)-phenyl]-piperazine-2-carboxylic acid methylamide], under setting [1], the IC50 amounted to 138 nM.

As for `CS(=O)(=O)N1CCC(Nc2ccc(CN3CCCCC(c4ccccc4)S3(=O)=O)cc2)CC1` (single isomer, unassigned) [Example 326, [4-(1,1-Dioxo-7-phenyl-[1,2]thiazepan-2-ylmethyl)-phenyl]-(1-methanesulfonyl-piperidin-4-yl)-amine], the IC50 under setting [1] turned out to be 4 nM.

`CC(=O)N1CCN(c2ccc(CN3CCC(c4ccc(F)cc4)S3(=O)=O)c(F)c2)CC1` (stereo not shown) [Example 9, 1-(4-{3-Fluoro-4-[5-(4-fluoro-phenyl)-1,1-dioxo-isothiazolidin-2-ylmethyl]-phenyl}-piperazin-1-yl)-ethanone]: the IC50 under setting [1] amounted to 7600 nM.

Regarding `C[C@H]1CCC(c2ccccc2)S(=O)(=O)N1Cc1ccc(N2CCC(c3nnco3)CC2)cc1F` (stereo partly drawn) [Example 210, (3S)-2-[2-Fluoro-4-(4-[1,3,4]oxadiazol-2-yl-piperidin-1-yl)-benzyl]-3-methyl-6-phenyl-[1,2]thiazinane 1,1-dioxide], the IC50 under setting [1] turned out to be 38 nM.

Turning to `C[C@H]1CCC(c2ccccc2)S(=O)(=O)N1Cc1ccc(N2CCC(c3cn[nH]c3)CC2)cc1F` (single isomer, unassigned) [Example 243], the IC50 under setting [1] is 3 nM.

For the compound `CC(=O)N1CCN(c2ccc(CN3[C@@H](C)CCC(c4ccccc4F)S3(=O)=O)c(F)c2)CC1` (single isomer, unassigned) [Example 117], under setting [1], the IC50 worked out at 3 nM.

(Values after patent US9115101B2 (Genentech, Inc., priority 2012, dated 2015).)
